Converted amounts (≈) assume the structure as drawn.
Experiments:
[1] = test system: methicillin-sensitive Staphylococcus aureus (MSSA, ATCC #29213); assay: Antibacterial assay, MIC by dilution antimicrobial susceptibility test; assay type: cell-based; conditions: ATCC29213|MSSA, 18 h, read-out: MIC against MSSA
[2] = test system: methicillin-resistant Staphylococcus aureus (MRSA, ATCC #33591); assay: as above; assay type: cell-based; conditions: ATCC33591|MRSA, 18 h, read-out: MIC against MRSA
[3] = qualitative statement from the literature; cited from earlier work

Compound | MIC [1] [µg/mL] | MIC [2] [µg/mL] | antibacterial activity (reported) [3]
CN[C@H](CC(C)C)C(=O)N[C@H]1C(=O)N[C@@H](CC(N)=O)C(=O)N[C@H]2C(=O)N[C@H]3C(=O)N[C@H](C(=O)N[C@H](C(=O)O)c4cc(O)cc(O)c4-c4cc3ccc4O)[C@H](O)c3ccc(c(Cl)c3)Oc3cc2cc(c3O[C@@H]2O[C@H](CO)[C@@H](O)[C@H](O)[C@H]2O[C@H]2C[C@](C)(N)[C@H](O)[C@H](C)O2)Oc2ccc(cc2Cl)[C@H]1O [Vancomycin] | 1 (≈ 0.69 µM) | 1 (≈ 0.69 µM) | 
peptidolipin NA |  |  | moderate antibacterial activity
